Among the data in the NIST ThermoML archive (doi:10.1016/j.fluid.2007.01.022) are mass density values, retold here.

The conditions of the data set: 298.15 K; 101.33 kPa; Liquid.

Numbers after ± are expanded uncertainties.

As for `Cc1ccccc1N` [2-methylaniline], the mass density amounted to 994.343 ± 0.24 kg/m3.

Take `CCCCCCCCCC` [decane]: the mass density came out at 726.412 ± 1.6 kg/m3.

As for `CCCCCCCCCCCC` [dodecane], the mass density was 741.54 ± 1.6 kg/m3.

Consider `CCCCCCC` [heptane], for which the mass density was found to be 679.627 ± 0.85 kg/m3.

For `CCCCCCCCC` [nonane], the mass density was determined as 714.064 ± 1.3 kg/m3.

In the case of `CCCCCCCC` [octane], the mass density is reported as 698.636 ± 1.3 kg/m3.
